The values that follow come from ChEMBL document CHEMBL1156421, “ApoA-I mimetic peptides with differing ability to inhibit atherosclerosis also exhibit differences in their interactions with membrane bilayers” (J Biol Chem, 2007).

In data set [1] the test system is Mus musculus. In words: Cmax in apoE deficient C57BL/6J mouse at 20 ug, ip. The data set is classed as ADME, organism-based. Particulars: in vivo, at 20 µg. Details: dose 20 ug, route intraperitoneal.
Data set [2] can be described thus: Elimination half life in apoE deficient C57BL/6J mouse at 20 ug, ip. In kind it is ADME, organism-based. Particulars: in vivo.
A short description of data set [3]: Time to Cmax in apoE deficient C57BL/6J mouse at 20 ug, ip. In kind it is ADME, organism-based. Particulars: in vivo.
Data set [4] has as its system Mus musculus. In words: Antiinflammatory activity in apoE deficient C57BL/6J mouse assessed as inhibition of atherosclerosis lesion area at 20 ug/day, ip administered for 4 weeks measured after 6 weeks. In kind it is functional.

What is called half-life is how long it takes for the measured level to halve. A lower half-life goes with fast loss. As a reminder, the Tmax is the time from dosing to the highest level. `CC(C)C[C@H](NC(=O)[C@H](Cc1ccccc1)NC(=O)[C@H](CCC(=O)O)NC(=O)[C@H](CCCCN)NC(=O)[C@H](Cc1ccccc1)NC(=O)[C@H](C)NC(=O)[C@H](CCC(=O)O)NC(=O)[C@H](C)NC(=O)[C@H](Cc1ccccc1)NC(=O)[C@H](CCCCN)NC(=O)[C@H](CC(=O)O)NC(=O)[C@H](Cc1ccc(O)cc1)NC(=O)[C@@H](NC(=O)[C@H](C)NC(=O)[C@H](CCCCN)NC(=O)[C@H](Cc1c[nH]c2ccccc12)NC(=O)[C@H](CCCCN)NC(=O)[C@H](CC(=O)O)NC([14CH3])=O)C(C)C)C(N)=O`: in the data set with Mus musculus [1], the Cmax is listed as 5.52%. In data set [2], this molecule had a half-life of 32.4 min. Further, the Tmax in data set [3] came to 16.8 min. Further, the Activity with Mus musculus [4] was found to be 15800 um2.

Turning to `CC(C)C[C@H](NC(=O)[C@H](Cc1c[nH]c2ccccc12)NC(=O)[C@H](CC(=O)O)NC([14CH3])=O)C(=O)N[C@@H](CCCCN)C(=O)N[C@@H](C)C(=O)N[C@@H](Cc1ccccc1)C(=O)N[C@@H](Cc1ccc(O)cc1)C(=O)N[C@@H](CC(=O)O)C(=O)N[C@@H](CCCCN)C(=O)N[C@H](C(=O)N[C@@H](C)C(=O)N[C@@H](CCC(=O)O)C(=O)N[C@@H](CCCCN)C(=O)N[C@@H](Cc1ccccc1)C(=O)N[C@@H](CCCCN)C(=O)N[C@@H](CCC(=O)O)C(=O)N[C@@H](C)C(=O)N[C@@H](Cc1ccccc1)C(N)=O)C(C)C`, the Cmax in the data set with Mus musculus [1] is 12.29%. The same molecule had a half-life in data set [2] of 126 min. Moreover, the time to peak (Tmax) in data set [3] worked out at 28.8 min. The Activity in the data set with Mus musculus [4] was 20400 um2.
